Results published in article PMC5007443, “TNIK inhibition abrogates colorectal cancer stemness” (Nature Communications, 2016).
Several values for one entry are separate records, joined by “and”; a condition that tells them apart may be missing. Equal values may be shown once.

Assays:
Spheroid #6 = assay: ALDH activity of spheroid #6; assay type: cell-based, human; settings: spheroid #6, 1 μM, 48 hr
Experimental: Cells with ALDH activity were detected using an Aldefluor kit (Stem Cell Technologies) in accordance with the manufacturer's instructions. Briefly, cells were incubated in Aldefluor assay buffer containing ALDH substrate for 30 min at 37 °C. As a negative control, an aliquot of each sample was treated with 50 mM diethylaminobenzaldehyde (DEAB) to block ALDH activity. Cells were analysed with a Guava easy Cyte HT flow cytometer. Data analysis was performed using the Guava InCyte software. The analysis was performed in triplicate and repeated at least two times.

TSSK1 = TSSK1 (Homo sapiens, UniProt Q9BXA7); assay: Kinase selectivity profiling, Testis-specific serine kinase 1; assay type: biochemical; settings: read-out: Percentage inhibition of TSSK1
Experimental: (§1) The selectivity of compounds against a panel of 50 human protein kinases was assessed using a non-radiometric assay.

DLD-1 cells [1] = assay: Limiting dilution analysis of sphere formation, DLD-1; assay type: cell-based, human
Experimental: One million HCT116 and DLD-1 cells were seeded onto 60-mm plates and treated with vehicle (DMSO) or compounds (0.1, 0.3 or 1.0 μM) for either 3 or 4 days. After washing off the compounds, the cells were dissociated to single cells in serum-free DMEM/F12 medium (Thermo Fisher Scientific) containing B27 (Thermo Fisher Scientific), 20 ng ml^−1 epidermal growth factor (EGF; Thermo Fisher Scientific), 10 ng ml^−1 basic fibroblast factor (bFGF; Thermo Fisher Scientific), 5 μg ml^−1 insulin (Thermo Fisher Scientific), 0.4% bovine serum albumin (Sigma-Aldrich) and 2 mM L-glutamine (Thermo Fisher Scientific). One hundred, 10 or 1 viable (determined by trypan-blue dye exclusion) cells were seeded into each well of a 96-well U-bottom PrimeSurface plate (Sumitomo Bakelite). Ten days later, the number of wells showing sphere formation was counted. The frequency of sphere-forming cells was calculated using ELDA software (http://bioinf.wehi.edu.au/software/elda/index.html) provided by the Walter and Eliza Hall Institute (Fig. 5c; Supplementary Table 2). Experiments were performed in triplicate and repeated at least two times.

IKKβ = IKKβ (Homo sapiens, UniProt O14920); assay: Kinase selectivity profiling, I-kappa-B kinase-β; assay type: biochemical; settings: read-out: Percentage inhibition of IKKβ
Experimental: as §1

MAPKAPK2 = MAPKAPK2 (Homo sapiens, UniProt P49137); assay: Kinase selectivity profiling, Mitogen-activated protein kinase-activated protein kinase 2; assay type: biochemical; settings: read-out: Percentage inhibition of MAPKAPK2
Experimental: as §1

CDK2/CycA2 = CDK2/CycA2 (Homo sapiens, UniProt P24941); assay: Kinase selectivity profiling, Cyclin-dependent kinase 2/cyclin A2; assay type: biochemical; settings: 0.1 µM inhibitor, ATP at Km
Experimental: as §1

HCT116 cells = assay: In vivo tumorigenicity of pretreated HCT116 cells in NOD/ShiJic-scid mice; design: species or system mouse; settings: HCT116, short-term in vitro treatment
Experimental: (§2) After washing off the compounds, 10,000, 1,000, 100 or 10 viable cells in culture medium containing 50% Matrigel (BD Biosciences) were injected subcutaneously into the flanks of NOD/ShiJic-scid Jcl (6-week-old male) mice. The number of mice that developed tumours was counted, and the frequency of cells with tumour-forming capability was calculated using the ELDA software.

KDR = KDR (Homo sapiens, UniProt P35968); assay: Kinase selectivity profiling, Kinase insert domain receptor; assay type: biochemical; settings: read-out: Percentage inhibition of KDR
Experimental: as §1

TIE2 = TIE2 (Homo sapiens, UniProt Q02763); assay: Kinase selectivity profiling, TEK tyrosine kinase; assay type: biochemical; settings: read-out: Percentage inhibition of TIE2
Experimental: as §1

PDK1 = PDK1 (Homo sapiens, UniProt O15530); assay: Kinase selectivity profiling; assay type: biochemical; settings: read-out: Percentage inhibition of PDK1
Experimental: as §1

MST1 = MST1 (Homo sapiens, UniProt Q13043); assay: Kinase selectivity profiling; assay type: biochemical; settings: read-out: Percentage inhibition of MST1
Experimental: as §1

PKD2 = PKD2 (Homo sapiens, UniProt Q9BZL6); assay: Kinase selectivity profiling; assay type: biochemical; settings: read-out: Percentage inhibition of PKD2
Experimental: as §1

PKACα = PKACα (Homo sapiens, UniProt P17612); assay: Kinase selectivity profiling, cAMP-dependent protein kinase, catalytic subunit α; assay type: biochemical; settings: read-out: Percentage inhibition of PKACα
Experimental: as §1

EGFR = EGFR (Homo sapiens, UniProt P00533); assay: Kinase selectivity profiling, Epidermal growth factor receptor; assay type: biochemical; settings: read-out: Percentage inhibition of EGFR
Experimental: as §1

DLD-1 cells [2] = assay: In vivo tumorigenicity of pretreated DLD-1 cells in NOD/ShiJic-scid mice; design: species or system mouse; settings: DLD-1, short-term in vitro treatment
Experimental: as §2

[3] = test system: patient-derived colorectal cancer spheroids #19; assay: ATP production of patient-derived spheroid #19; assay type: cell-based; settings: Homo sapiens, 72 h; spheroid #19, 3 days
Experimental: Cells were seeded at a density of 3,000 cells per well in 96-well plates. Twenty-four hours after seeding, the cells were exposed to serially diluted compounds (0.003, 0.01, 0.03, 0.1, 0.3, 1, 3 and 10 μM) and incubated for 72 h (Fig. 3a). Patient-derived colorectal cancer spheroids were dissociated into single cells with Accutase (Nacalai Tesque) and seeded at a density of 3,000 cells per well into Ultra-Low attachment multiwall 96-well plates (Corning; Fig. 6d). ATP was measured with a CellTiter-Glo Luminescent Cell Viability Assay kit (Promega). Experiments were performed in triplicate and repeated at least two times.

[4] = DLD-1, 3-day treatment, 0.1 μM, 1 cell per well
[5] = DLD-1, 3-day treatment, 0.1 μM, 10 cells per well
[6] = DLD-1, 3-day treatment, 0.1 μM, 100 cells per well
[7] = DLD-1, 3-day treatment, 0.3 μM, 1 cell per well
[8] = DLD-1, 3-day treatment, 0.3 μM, 10 cells per well
[9] = DLD-1, 3-day treatment, 0.3 μM, 100 cells per well
[10] = DLD-1, 3-day treatment, 1.0 μM, 1 cell per well
[11] = DLD-1, 3-day treatment, 1.0 μM, 10 cells per well
[12] = DLD-1, 3-day treatment, 1.0 μM, 100 cells per well
[13] = DLD-1, 4-day treatment, 0.1 μM, 1 cell per well
[14] = DLD-1, 4-day treatment, 0.1 μM, 10 cells per well
[15] = DLD-1, 4-day treatment, 0.1 μM, 100 cells per well
[16] = DLD-1, 4-day treatment, 0.3 μM, 1 cell per well
[17] = DLD-1, 4-day treatment, 0.3 μM, 10 cells per well
[18] = DLD-1, 4-day treatment, 0.3 μM, 100 cells per well
[19] = DLD-1, 4-day treatment, 1.0 μM, 1 cell per well
[20] = DLD-1, 4-day treatment, 1.0 μM, 10 cells per well
[21] = DLD-1, 4-day treatment, 1.0 μM, 100 cells per well

Chain of TIE2 (Q02763 23-1124): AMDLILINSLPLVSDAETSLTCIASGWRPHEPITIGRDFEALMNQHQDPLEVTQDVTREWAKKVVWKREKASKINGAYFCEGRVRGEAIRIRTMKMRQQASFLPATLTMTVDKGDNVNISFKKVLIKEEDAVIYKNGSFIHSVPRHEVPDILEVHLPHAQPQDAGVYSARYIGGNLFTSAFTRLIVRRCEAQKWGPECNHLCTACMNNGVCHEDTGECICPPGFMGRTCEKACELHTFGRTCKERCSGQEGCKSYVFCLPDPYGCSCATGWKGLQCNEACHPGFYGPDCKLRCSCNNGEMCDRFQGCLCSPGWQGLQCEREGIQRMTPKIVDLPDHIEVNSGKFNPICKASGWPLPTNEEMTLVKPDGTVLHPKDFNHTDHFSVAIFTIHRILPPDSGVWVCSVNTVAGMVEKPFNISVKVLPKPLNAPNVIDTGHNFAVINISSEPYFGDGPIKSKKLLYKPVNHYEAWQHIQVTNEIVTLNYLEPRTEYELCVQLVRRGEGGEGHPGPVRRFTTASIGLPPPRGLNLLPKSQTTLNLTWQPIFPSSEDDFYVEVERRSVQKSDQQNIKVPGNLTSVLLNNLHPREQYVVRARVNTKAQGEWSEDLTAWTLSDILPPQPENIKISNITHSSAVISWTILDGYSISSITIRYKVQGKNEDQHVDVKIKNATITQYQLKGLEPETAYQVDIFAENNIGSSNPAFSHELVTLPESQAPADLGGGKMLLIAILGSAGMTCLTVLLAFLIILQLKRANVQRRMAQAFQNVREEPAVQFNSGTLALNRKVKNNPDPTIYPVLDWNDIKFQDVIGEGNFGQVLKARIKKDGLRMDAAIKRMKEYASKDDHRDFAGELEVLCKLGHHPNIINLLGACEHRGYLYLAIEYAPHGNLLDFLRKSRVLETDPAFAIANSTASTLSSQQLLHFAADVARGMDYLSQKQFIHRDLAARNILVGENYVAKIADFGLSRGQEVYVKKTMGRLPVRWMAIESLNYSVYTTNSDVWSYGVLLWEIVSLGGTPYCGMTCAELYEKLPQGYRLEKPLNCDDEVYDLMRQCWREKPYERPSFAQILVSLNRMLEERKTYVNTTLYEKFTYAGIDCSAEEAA
Chain of MST1 (Q13043 whole entry): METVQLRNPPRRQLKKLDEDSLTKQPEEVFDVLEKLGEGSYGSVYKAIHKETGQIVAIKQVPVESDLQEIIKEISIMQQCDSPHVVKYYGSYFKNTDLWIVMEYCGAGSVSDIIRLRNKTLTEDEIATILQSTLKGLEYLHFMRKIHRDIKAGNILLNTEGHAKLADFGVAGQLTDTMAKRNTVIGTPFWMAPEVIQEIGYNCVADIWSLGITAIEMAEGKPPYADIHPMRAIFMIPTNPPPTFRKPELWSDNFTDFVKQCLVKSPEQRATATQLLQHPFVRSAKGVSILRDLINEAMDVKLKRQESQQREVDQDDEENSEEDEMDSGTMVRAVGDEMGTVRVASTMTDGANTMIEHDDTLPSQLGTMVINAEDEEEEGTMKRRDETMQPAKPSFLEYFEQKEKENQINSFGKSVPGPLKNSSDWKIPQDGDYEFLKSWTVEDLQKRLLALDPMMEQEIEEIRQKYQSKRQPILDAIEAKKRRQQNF
Chain of TSSK1 (Q9BXA7 whole entry): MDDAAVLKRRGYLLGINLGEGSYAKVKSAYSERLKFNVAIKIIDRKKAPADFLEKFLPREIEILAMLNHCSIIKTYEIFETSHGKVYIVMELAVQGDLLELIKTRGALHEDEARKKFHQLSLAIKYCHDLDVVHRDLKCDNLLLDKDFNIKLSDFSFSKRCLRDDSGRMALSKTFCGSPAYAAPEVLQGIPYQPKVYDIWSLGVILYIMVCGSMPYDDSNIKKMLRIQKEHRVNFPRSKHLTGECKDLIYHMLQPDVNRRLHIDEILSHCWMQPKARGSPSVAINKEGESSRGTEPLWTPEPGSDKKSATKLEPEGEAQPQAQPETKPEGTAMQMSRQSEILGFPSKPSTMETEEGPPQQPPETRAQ
Chain of EGFR (P00533 25-1210): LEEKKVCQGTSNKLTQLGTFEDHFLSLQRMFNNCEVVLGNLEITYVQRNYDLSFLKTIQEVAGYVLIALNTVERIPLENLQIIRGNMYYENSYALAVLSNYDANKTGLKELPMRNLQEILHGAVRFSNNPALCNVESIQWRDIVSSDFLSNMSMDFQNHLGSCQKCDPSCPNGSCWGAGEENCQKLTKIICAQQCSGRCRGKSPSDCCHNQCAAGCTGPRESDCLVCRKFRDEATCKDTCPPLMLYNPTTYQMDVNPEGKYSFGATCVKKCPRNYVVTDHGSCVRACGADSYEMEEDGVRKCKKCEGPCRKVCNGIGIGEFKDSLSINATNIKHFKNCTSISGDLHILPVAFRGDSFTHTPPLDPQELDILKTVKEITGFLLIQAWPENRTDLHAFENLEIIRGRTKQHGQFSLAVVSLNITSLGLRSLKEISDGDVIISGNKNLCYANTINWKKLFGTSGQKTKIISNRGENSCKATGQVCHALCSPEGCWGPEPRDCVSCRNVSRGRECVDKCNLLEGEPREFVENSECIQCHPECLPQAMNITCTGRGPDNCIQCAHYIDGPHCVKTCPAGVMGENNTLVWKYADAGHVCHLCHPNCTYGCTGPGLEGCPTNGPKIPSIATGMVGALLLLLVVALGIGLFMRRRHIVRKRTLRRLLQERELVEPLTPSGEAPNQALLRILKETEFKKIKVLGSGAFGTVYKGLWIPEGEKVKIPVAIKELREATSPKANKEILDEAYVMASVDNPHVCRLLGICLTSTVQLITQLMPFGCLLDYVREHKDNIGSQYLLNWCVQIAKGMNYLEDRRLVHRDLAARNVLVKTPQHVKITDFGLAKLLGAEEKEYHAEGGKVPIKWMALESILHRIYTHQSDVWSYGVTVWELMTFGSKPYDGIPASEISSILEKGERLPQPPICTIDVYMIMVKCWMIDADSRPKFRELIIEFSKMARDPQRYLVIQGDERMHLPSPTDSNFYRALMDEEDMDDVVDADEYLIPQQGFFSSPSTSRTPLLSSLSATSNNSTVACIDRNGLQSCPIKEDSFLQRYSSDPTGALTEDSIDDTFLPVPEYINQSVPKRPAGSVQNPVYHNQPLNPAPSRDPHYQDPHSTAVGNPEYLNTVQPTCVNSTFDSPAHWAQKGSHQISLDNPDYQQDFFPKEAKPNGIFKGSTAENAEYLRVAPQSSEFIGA
Chain of PKD2 (Q9BZL6 whole entry): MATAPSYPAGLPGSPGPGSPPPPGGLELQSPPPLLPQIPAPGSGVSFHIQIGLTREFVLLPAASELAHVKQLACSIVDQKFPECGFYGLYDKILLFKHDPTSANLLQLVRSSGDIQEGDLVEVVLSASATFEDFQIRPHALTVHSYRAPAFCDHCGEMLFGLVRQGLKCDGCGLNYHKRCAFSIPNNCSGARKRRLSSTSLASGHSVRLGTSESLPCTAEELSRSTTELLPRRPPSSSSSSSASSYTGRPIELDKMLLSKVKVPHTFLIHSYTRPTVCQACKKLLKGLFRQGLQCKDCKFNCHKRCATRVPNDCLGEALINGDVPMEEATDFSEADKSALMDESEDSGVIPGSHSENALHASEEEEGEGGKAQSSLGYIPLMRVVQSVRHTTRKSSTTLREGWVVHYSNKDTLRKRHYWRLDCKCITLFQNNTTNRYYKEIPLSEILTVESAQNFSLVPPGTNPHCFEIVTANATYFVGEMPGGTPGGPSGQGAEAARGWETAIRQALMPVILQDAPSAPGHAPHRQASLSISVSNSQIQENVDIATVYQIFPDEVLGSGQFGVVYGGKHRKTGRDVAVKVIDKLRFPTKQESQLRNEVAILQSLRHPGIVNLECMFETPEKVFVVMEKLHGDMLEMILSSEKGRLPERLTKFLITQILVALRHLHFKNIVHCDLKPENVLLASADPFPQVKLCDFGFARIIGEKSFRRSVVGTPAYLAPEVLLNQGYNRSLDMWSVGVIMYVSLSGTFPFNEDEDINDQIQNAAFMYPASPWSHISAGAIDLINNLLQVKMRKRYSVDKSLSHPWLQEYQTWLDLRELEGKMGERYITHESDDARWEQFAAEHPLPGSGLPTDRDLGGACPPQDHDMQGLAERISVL
Chain of MAPKAPK2 (P49137 whole entry): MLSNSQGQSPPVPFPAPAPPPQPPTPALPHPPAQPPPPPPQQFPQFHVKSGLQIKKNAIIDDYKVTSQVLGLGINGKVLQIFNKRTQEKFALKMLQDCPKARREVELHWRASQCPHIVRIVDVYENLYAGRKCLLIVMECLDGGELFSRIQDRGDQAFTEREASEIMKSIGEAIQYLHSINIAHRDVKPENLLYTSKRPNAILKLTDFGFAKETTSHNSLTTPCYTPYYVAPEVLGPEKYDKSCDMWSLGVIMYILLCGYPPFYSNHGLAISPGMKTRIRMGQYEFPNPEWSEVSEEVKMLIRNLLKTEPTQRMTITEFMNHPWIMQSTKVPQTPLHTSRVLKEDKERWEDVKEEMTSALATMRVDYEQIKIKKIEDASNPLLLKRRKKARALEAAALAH
Chain of PDK1 (O15530 whole entry): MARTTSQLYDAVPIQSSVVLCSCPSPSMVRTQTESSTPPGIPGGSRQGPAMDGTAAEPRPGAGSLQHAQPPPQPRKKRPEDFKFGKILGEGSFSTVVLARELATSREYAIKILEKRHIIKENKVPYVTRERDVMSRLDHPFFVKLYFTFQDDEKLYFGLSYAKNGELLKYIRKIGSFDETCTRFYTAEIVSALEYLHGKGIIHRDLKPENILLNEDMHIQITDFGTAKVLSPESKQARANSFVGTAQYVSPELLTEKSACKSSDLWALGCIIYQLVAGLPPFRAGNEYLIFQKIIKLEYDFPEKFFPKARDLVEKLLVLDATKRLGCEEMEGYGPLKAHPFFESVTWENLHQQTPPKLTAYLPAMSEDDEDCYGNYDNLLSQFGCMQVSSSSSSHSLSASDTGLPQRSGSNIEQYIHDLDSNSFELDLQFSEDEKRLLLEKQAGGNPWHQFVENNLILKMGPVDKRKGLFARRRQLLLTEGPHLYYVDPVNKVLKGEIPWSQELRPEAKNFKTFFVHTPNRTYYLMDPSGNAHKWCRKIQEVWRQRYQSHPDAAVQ

O[C@H]1CC[C@@H](Oc2cccc3cnc(Nc4ccc5nc[nH]c5c4)nc23)CC1 [NCB-0846, cis-4-(2-(3H-benzo[d]imidazol-5-ylamino)quinazolin-8-yloxy)cyclohexanol]
percentage of cells with ALDH activity, - DEAB (Spheroid #6): 19.43% | percentage of cells with ALDH activity, + DEAB (Spheroid #6): 1.01% | inhibition at 0.1 µM (TSSK1): 5.8% | Sphere-containing wells/total wells (DLD-1 cells [1]; [4]): 55/96 | Sphere-containing wells/total wells (DLD-1 cells [1]; [5]): 95/96 | Sphere-containing wells/total wells (DLD-1 cells [1]; [6]): 96/96 | Sphere-containing wells/total wells (DLD-1 cells [1]; [7]): 23/96 | Sphere-containing wells/total wells (DLD-1 cells [1]; [8]): 86/96 | Sphere-containing wells/total wells (DLD-1 cells [1]; [9]): 96/96 | Sphere-containing wells/total wells (DLD-1 cells [1]; [10]): 3/96 | Sphere-containing wells/total wells (DLD-1 cells [1]; [11]): 25/96 | Sphere-containing wells/total wells (DLD-1 cells [1]; [12]): 77/96 | Sphere-containing wells/total wells (DLD-1 cells [1]; [13]): 39/96 | Sphere-containing wells/total wells (DLD-1 cells [1]; [14]): 92/96 | Sphere-containing wells/total wells (DLD-1 cells [1]; [15]): 96/96 | Sphere-containing wells/total wells (DLD-1 cells [1]; [16]): 46/96 | Sphere-containing wells/total wells (DLD-1 cells [1]; [17]): 90/96 | Sphere-containing wells/total wells (DLD-1 cells [1]; [18]): 95/96 | Sphere-containing wells/total wells (DLD-1 cells [1]; [19]): 7/96 | Sphere-containing wells/total wells (DLD-1 cells [1]; [20]): 34/96 | Sphere-containing wells/total wells (DLD-1 cells [1]; [21]): 96/96 | sphere formation activity (DLD-1 cells [1]; DLD-1, short-term (3–4 days) treatment): significantly abrogated | inhibition at 0.1 µM (IKKβ): 6.8% | inhibition at 0.1 µM (MAPKAPK2): -5.8% | Percentage inhibition of CDK2/CycA2 (CDK2/CycA2; 0.1 µM): > 80% and 101.1% | tumour formation (HCT116 cells): significantly reduced | inhibition at 0.1 µM (KDR): 71.1% | inhibition at 0.1 µM (TIE2): 4.9% | inhibition at 0.1 µM (PDK1): 2.4% | inhibition at 0.1 µM (MST1): 57.8% | inhibition at 0.1 µM (PKD2): 18.8% | inhibition at 0.1 µM (PKACα): 0.9% | inhibition at 0.1 µM (EGFR): 4.8% | tumour formation (DLD-1 cells [2]): significantly reduced | IC50 [3]: 620 nM

O[C@H]1CC[C@H](Oc2cccc3cnc(Nc4ccc5nc[nH]c5c4)nc23)CC1 [NCB-0970]
percentage of cells with ALDH activity, - DEAB (Spheroid #6): 44.32% | percentage of cells with ALDH activity, + DEAB (Spheroid #6): 2.30% | inhibition at 0.1 µM (TSSK1): 1.1% | Sphere-containing wells/total wells (DLD-1 cells [1]; [4]): 40/96 | Sphere-containing wells/total wells (DLD-1 cells [1]; [5]): 96/96 | Sphere-containing wells/total wells (DLD-1 cells [1]; [6]): 96/96 | Sphere-containing wells/total wells (DLD-1 cells [1]; [7]): 51/96 | Sphere-containing wells/total wells (DLD-1 cells [1]; [8]): 95/96 | Sphere-containing wells/total wells (DLD-1 cells [1]; [9]): 96/96 | Sphere-containing wells/total wells (DLD-1 cells [1]; [10]): 16/96 | Sphere-containing wells/total wells (DLD-1 cells [1]; [11]): 75/96 | Sphere-containing wells/total wells (DLD-1 cells [1]; [12]): 95/96 | Sphere-containing wells/total wells (DLD-1 cells [1]; [13]): 55/96 | Sphere-containing wells/total wells (DLD-1 cells [1]; [14]): 95/96 | Sphere-containing wells/total wells (DLD-1 cells [1]; [15]): 96/96 | Sphere-containing wells/total wells (DLD-1 cells [1]; [16]): 65/96 | Sphere-containing wells/total wells (DLD-1 cells [1]; [17]): 94/96 | Sphere-containing wells/total wells (DLD-1 cells [1]; [18]): 96/96 | Sphere-containing wells/total wells (DLD-1 cells [1]; [19]): 45/96 | Sphere-containing wells/total wells (DLD-1 cells [1]; [20]): 95/96 | Sphere-containing wells/total wells (DLD-1 cells [1]; [21]): 96/96 | inhibition at 0.1 µM (IKKβ): 7.9% | inhibition at 0.1 µM (MAPKAPK2): -9.3% | inhibition at 0.1 µM (CDK2/CycA2; read-out: Percentage inhibition of CDK2/CycA2): 93% | tumour formation (HCT116 cells): not | inhibition at 0.1 µM (KDR): 43.7% | inhibition at 0.1 µM (TIE2): -2.8% | inhibition at 0.1 µM (PDK1): -0.8% | inhibition at 0.1 µM (MST1): 14.3% | inhibition at 0.1 µM (PKD2): 1% | inhibition at 0.1 µM (PKACα): -4.4% | inhibition at 0.1 µM (EGFR): -16.8% | tumour formation (DLD-1 cells [2]): not | IC50 [3]: > 3000 nM
